Laboratory results taken from ChEMBL document CHEMBL3727364, “Resorcinol n-aryl amide compounds, for use as pyruvate dehydrogenase kinase inhibitors” (2015).
One block for each compound: values may come before it.

How the values were obtained:
[1] = biological target: [Pyruvate dehydrogenase (acetyl-transferring)] kinase isozyme 1, mitochondrial (Homo sapiens, UniProt Q15118); assay: Binding affinity to pyruvate dehydrogenase kinase 1 (unknown origin) incubated for 90 mins by VER-00160364 probe based fluorescence polarization assay
Chain of [Pyruvate dehydrogenase (acetyl-transferring)] kinase isozyme 1, mitochondrial (Q15118 whole entry): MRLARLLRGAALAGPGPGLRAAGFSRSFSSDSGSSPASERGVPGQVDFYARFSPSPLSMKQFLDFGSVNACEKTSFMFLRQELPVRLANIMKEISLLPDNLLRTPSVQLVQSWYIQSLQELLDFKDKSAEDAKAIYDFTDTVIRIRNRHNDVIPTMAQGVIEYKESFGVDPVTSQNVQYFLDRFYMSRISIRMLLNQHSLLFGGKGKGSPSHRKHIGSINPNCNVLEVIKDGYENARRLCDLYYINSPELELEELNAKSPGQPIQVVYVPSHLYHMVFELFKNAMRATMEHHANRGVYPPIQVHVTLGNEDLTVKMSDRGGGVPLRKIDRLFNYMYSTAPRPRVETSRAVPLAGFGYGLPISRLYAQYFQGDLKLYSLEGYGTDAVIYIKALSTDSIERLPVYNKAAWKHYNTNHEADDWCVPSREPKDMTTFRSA

[2] = biological target: Pyruvate dehydrogenase kinase (Homo sapiens, UniProt Q15119+Q15120+Q16654+Q15118); assay: Inhibition of pyruvate dehydrogenase kinase in human PC3 cells incubated for 90 mins by phospho(Ser293)E1alpha MSP ELISA method; format: cell-based; details: pc-3

SMILES: COc1cnc(Cl)nc1-c1ccc(N(Cc2ccccc2)C(=O)c2cc(Cl)c(O)cc2O)cc1
IC50 [1]: 100 nM
IC50 [2]: 100 nM

SMILES: Cc1cc(S(=O)(=O)NCc2cccnc2)cnc1-c1ccc(N(Cc2ccccc2)C(=O)c2cc(Cl)c(O)cc2O)cc1
IC50 [1]: 100 nM
IC50 [2]: 1000 nM

The next compounds have a lower IC50 [1] than those just listed; values first:

IC50 [1]: 10 nM
IC50 [2]: 1000 nM
SMILES: Cc1cc(S(=O)(=O)NCc2ccccc2)cnc1-c1ccc(N(Cc2cccnc2)C(=O)c2ccc(O)cc2O)cc1

IC50 [1]: 10 nM
IC50 [2]: 1000 nM
SMILES: CN(Cc1ccc2nccnc2c1)C(=O)c1ccc(N(Cc2ccsc2)C(=O)c2ccc(O)cc2O)cc1

IC50 [1]: 10 nM
IC50 [2]: 1000 nM
SMILES: COc1cnc(Cl)nc1-c1ccc(N(Cc2cccnc2)C(=O)c2ccc(O)cc2O)cc1

IC50 [1]: 10 nM
IC50 [2]: 1000 nM
SMILES: CN(Cc1ccc2ccccc2c1)C(=O)c1ccc(N(Cc2cccnc2)C(=O)c2ccc(O)cc2O)cc1
